Results taken from patent US8338643B2, “Reagent for introduction of protein or gene” (Waseda University, priority 2006, dated 2012).
Each block holds one compound with its values, some of them ahead of it.

Key:
COS-1 cells = assay: Gene expression level by luciferase assay, lipid/pDNA complex; format: cell-based; settings: for Gene expression level: COS-1, DOPE/cationic lipid liposome, 200 ng DNA, 24 hours
Procedure: (§1) Use of a cationic lipid as a reagent for gene introduction was studied. Cationic liposomes consisting of a mixed membrane constituted by DOPE as a membrane-fusogenic lipid and a cationic lipid were prepared. 15 mg of the mixed lipid (the introduction amount of cationic lipid membrane in mixed membrane was adjusted to 20, 30, 40 or 50 mol %) was dispersed in 1.5 mL of the HEPES buffer solution (pH 7.4), and a liposome having the particle size of about 100 nm was prepared using a probe-type ultrasonic apparatus. The particle size was measured by the dynamic light scattering method. In the table, A represents a cationic lipid 2 and a cationic lipid 6; B represents a cationic lipid 5; C represents a cationic lipid 7; and D represents a cationic lipid 8.
In order to evaluate the gene transfer ability of the prepared cationic liposomes, the gene expression level was calculated based on luciferase assay using an luciferase-encoding plasmid vector (phRL-TK) (n=3).
The experimental protocol was as follows. The amount of transfected DNA was set to 200 ng in all the cases. In 100 μL of medium, COS-1 cells (1×10^4 cells/well) were seeded on a 96-well plate, and cultured in a CO2 incubator for 12 hours. A complex of lipid and plasmid DNA (lipid/pDNA complex) was allowed to stand for minutes, and diluted with the medium to be added to the cells. After that, culture in the CO2 incubator was carried out for 24 hours. The medium was removed, and washing with PBS(−) was carried out twice. Then, a dissolution buffer diluted 5-fold with MilliQ water was added to the medium (25 μl/well), and the cells were solubilized. The obtained solution was mildly stirred and allowed to stand at room temperature for minutes. To 20 μL of the cell solution, 100 μL of the coelenterazine solution was added, and the luminescence intensity was measured using a luminometer.

[1] = Particle size of liposomes by dynamic light scattering; format: physicochemical; settings: DOPE mixed membrane, in nm
Procedure: (§2) The particle size and the ζ potential of the prepared cationic liposomes were measured. In the measurement of the particle size, the particle size in the case of the lipid concentration of 30 μM was measured by the dynamic light scattering method. In the measurement of the ζ potential, a liposome dispersion was diluted with a HEPES buffer solution (pH 7.4), and the ζ potential in the case of 30 μM was measured.
as §1

ζ potential of liposomes = format: physicochemical; settings: for ζ potential: DOPE mixed membrane, in mV
Procedure: As evaluation of physical properties, the quantification of lipid was carried out by means of quantification of choline-type phospholipid, and quantification of encapsulated protein was carried out by means of HPLC (220 nm). In addition, the particle size and ζ potential were measured by the dynamic light scattering method (BECKMAN COULTER, N4 PLUS). […]
as §2
Next, the ζ potential of the prepared cationic liposomes was measured. A to D in the table was the same as Table 9.

Compound: CCCCCCCCCCCCCCCCOC(=O)CCC(NC(=O)C(N)CCCCN)C(=O)OCCCCCCCCCCCCCCCC (stereo not drawn) [Compound 2, Lys-Glu2C16]
Gene expression level (COS-1 cells): the gene expression level was low

Compound: Lys-(CH2)3-Glu2C16 [Compound 6]
Gene expression level (COS-1 cells): a high expression efficiency was obtained
Gene expression efficiency at best conditions (COS-1 cells; DOPE/lipid 6=6/4 (mol ratio), cationic liposome/plasmid DNA 10/1 (w/w)): The highest expression efficiency was obtained

Compound: Lys-(CH2)7-Glu2C16 [Compound 7]
Particle size ([1]; cationic lipid 20 mol %): 88 ± 42
Particle size ([1]; cationic lipid 30 mol %): 98 ± 37
Particle size ([1]; cationic lipid 40 mol %): 86 ± 40
Particle size ([1]; cationic lipid 50 mol %): 100 ± 48
ζ potential (ζ potential of liposomes; cationic lipid 20 mol %): 34 ± 42
ζ potential (ζ potential of liposomes; cationic lipid 30 mol %): 40 ± 3.3
ζ potential (ζ potential of liposomes; cationic lipid 40 mol %): 49 ± 3.3
ζ potential (ζ potential of liposomes; cationic lipid 50 mol %): 37 ± 3.1
Gene expression level (COS-1 cells): the gene expression level was low

Now from value to compound, other results behind:

Particle size ([1]; cationic lipid 20 mol %): 99 ± 45
Particle size ([1]; cationic lipid 30 mol %): 95 ± 46
Particle size ([1]; cationic lipid 40 mol %): 91 ± 43
Particle size ([1]; cationic lipid 50 mol %): 100 ± 47
ζ potential (ζ potential of liposomes; cationic lipid 20 mol %): 28 ± 3.4
ζ potential (ζ potential of liposomes; cationic lipid 30 mol %): 37 ± 0.2
ζ potential (ζ potential of liposomes; cationic lipid 40 mol %): 42 ± 3.0
ζ potential (ζ potential of liposomes; cationic lipid 50 mol %): 41 ± 1.3
Compound: CCCCCCCCCCCCCCCCOC(=O)CCC(NC(=O)CCCCCNC(=O)C(N)CCCCN)C(=O)OCCCCCCCCCCCCCCCC (stereo not drawn) [Compound 5, Lys-(CH2)5-Glu2C16]
Gene expression level (COS-1 cells): the expression level was lower than that of the spacer-contained lipid 6

Particle size ([1]; cationic lipid 20 mol %): 95 ± 36
Particle size ([1]; cationic lipid 30 mol %): 113 ± 50
Particle size ([1]; cationic lipid 40 mol %): 80 ± 39
Particle size ([1]; cationic lipid 50 mol %): 95 ± 36
ζ potential, comparison between lipids (ζ potential of liposomes; DOPE mixed membrane liposomes): slightly lower than that of the lipid 7
ζ potential (ζ potential of liposomes; cationic lipid 20 mol %): 30 ± 1.2
ζ potential (ζ potential of liposomes; cationic lipid 30 mol %): 37 ± 0.8
ζ potential (ζ potential of liposomes; cationic lipid 40 mol %): 37 ± 3.1
ζ potential (ζ potential of liposomes; cationic lipid 50 mol %): 44 ± 1.6
Compound: Lys-(CH2)11-Glu2C16 [Compound 8]
